{
  "source": "PubChem BioAssay (NCI)",
  "assay_in_all_cases": "inhibition of tumour cell growth, NCI panel, 384-well format",
  "key": {"NCI-H23 lung": {"system": "NCI-H23 lung"}, "NCI-H322M lung": {"system": "NCI-H322M lung"}, "NCI-H460 NSCLC": {"system": "NCI-H460 NSCLC"}, "NCI-H522 lung": {"system": "NCI-H522 lung"}, "OVCAR-3 ovarian": {"system": "OVCAR-3 ovarian"}, "OVCAR-4 ovarian": {"system": "OVCAR-4 ovarian"}, "OVCAR-5 ovarian": {"system": "OVCAR-5 ovarian"}, "OVCAR-8 ovarian": {"system": "OVCAR-8 ovarian"}, "PC-3 prostate": {"system": "PC-3 prostate"}, "RXF 393 renal": {"system": "RXF 393 renal"}, "SF-268 CNS": {"system": "SF-268 CNS"}, "SF-295 CNS": {"system": "SF-295 CNS"}, "SF-539 CNS": {"system": "SF-539 CNS"}, "SK-MEL-2 melanoma": {"system": "SK-MEL-2 melanoma"}, "SK-MEL-28 melanoma": {"system": "SK-MEL-28 melanoma"}, "SK-MEL-5 melanoma": {"system": "SK-MEL-5 melanoma"}, "SK-OV-3 ovarian": {"system": "SK-OV-3 ovarian"}, "SN12C renal": {"system": "SN12C renal"}, "SNB-19 CNS": {"system": "SNB-19 CNS"}, "SNB-75 CNS": {"system": "SNB-75 CNS"}, "SR leukemia": {"system": "SR leukemia"}, "SW-620 colon": {"system": "SW-620 colon"}, "T-47D breast": {"system": "T-47D breast"}, "TK-10 renal": {"system": "TK-10 renal"}, "U251 glioblastoma": {"system": "U251 glioblastoma"}, "UACC-257 melanoma": {"system": "UACC-257 melanoma"}, "UACC-62 melanoma": {"system": "UACC-62 melanoma"}, "UO-31 renal": {"system": "UO-31 renal"}},
  "note": "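GI50: concentration for 50% inhibition of growth. Definition used: TGI = concentration required for complete inhibition of growth.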",
  "data": [
    {"smiles": "Cc1cc(Oc2ccc3nc(COc4ccc(CC5SC(=O)NC5=O)cc4)n(C)c3c2)cc(C)c1N", "note": "(stereo not given)", "values": [
      {"measurement": "TGI", "setting": "NCI-H23 lung", "value": 29.5, "unit": "µM"},
      {"measurement": "GI50", "setting": "NCI-H322M lung", "value": 32.8, "unit": "µM"},
      {"measurement": "TGI", "setting": "NCI-H322M lung", "value": 77.4, "unit": "µM"},
      {"measurement": "GI50", "setting": "NCI-H460 NSCLC", "value": 15.9, "unit": "µM"},
      {"measurement": "TGI", "setting": "NCI-H460 NSCLC", "value": 31.9, "unit": "µM"},
      {"measurement": "GI50", "setting": "NCI-H522 lung", "value": 20.4, "unit": "µM"},
      {"measurement": "TGI", "setting": "NCI-H522 lung", "value": 41.4, "unit": "µM"},
      {"measurement": "GI50", "setting": "OVCAR-3 ovarian", "value": 19.1, "unit": "µM"},
      {"measurement": "TGI", "setting": "OVCAR-3 ovarian", "value": 35.8, "unit": "µM"},
      {"measurement": "GI50", "setting": "OVCAR-4 ovarian", "value": 29.4, "unit": "µM"},
      {"measurement": "TGI", "setting": "OVCAR-4 ovarian", "value": 75.2, "unit": "µM"},
      {"measurement": "GI50", "setting": "OVCAR-5 ovarian", "value": 38.2, "unit": "µM"},
      {"measurement": "TGI", "setting": "OVCAR-5 ovarian", "value": "> 100", "unit": "µM"},
      {"measurement": "GI50", "setting": "OVCAR-8 ovarian", "value": 22.4, "unit": "µM"},
      {"measurement": "TGI", "setting": "OVCAR-8 ovarian", "value": 53.7, "unit": "µM"},
      {"measurement": "GI50", "setting": "PC-3 prostate", "value": 17.3, "unit": "µM"},
      {"measurement": "TGI", "setting": "PC-3 prostate", "value": 35.4, "unit": "µM"},
      {"measurement": "GI50", "setting": "RXF 393 renal", "value": 16.8, "unit": "µM"},
      {"measurement": "TGI", "setting": "RXF 393 renal", "value": 48.4, "unit": "µM"},
      {"measurement": "GI50", "setting": "SF-268 CNS", "value": 23.9, "unit": "µM"},
      {"measurement": "TGI", "setting": "SF-268 CNS", "value": 57.7, "unit": "µM"},
      {"measurement": "GI50", "setting": "SF-295 CNS", "value": 26.3, "unit": "µM"},
      {"measurement": "TGI", "setting": "SF-295 CNS", "value": 66.4, "unit": "µM"},
      {"measurement": "GI50", "setting": "SF-539 CNS", "value": 17.5, "unit": "µM"},
      {"measurement": "TGI", "setting": "SF-539 CNS", "value": 33.9, "unit": "µM"},
      {"measurement": "GI50", "setting": "SK-MEL-2 melanoma", "value": 20.3, "unit": "µM"},
      {"measurement": "TGI", "setting": "SK-MEL-2 melanoma", "value": 35.6, "unit": "µM"},
      {"measurement": "GI50", "setting": "SK-MEL-28 melanoma", "value": 23, "unit": "µM"},
      {"measurement": "TGI", "setting": "SK-MEL-28 melanoma", "value": 50.7, "unit": "µM"},
      {"measurement": "GI50", "setting": "SK-MEL-5 melanoma", "value": 18.8, "unit": "µM"},
      {"measurement": "TGI", "setting": "SK-MEL-5 melanoma", "value": 32.9, "unit": "µM"},
      {"measurement": "GI50", "setting": "SK-OV-3 ovarian", "value": 25.8, "unit": "µM"},
      {"measurement": "TGI", "setting": "SK-OV-3 ovarian", "value": 66.4, "unit": "µM"},
      {"measurement": "GI50", "setting": "SN12C renal", "value": 28.7, "unit": "µM"},
      {"measurement": "TGI", "setting": "SN12C renal", "value": "> 100", "unit": "µM"},
      {"measurement": "GI50", "setting": "SNB-19 CNS", "value": 42, "unit": "µM"},
      {"measurement": "TGI", "setting": "SNB-19 CNS", "value": "> 100", "unit": "µM"},
      {"measurement": "GI50", "setting": "SNB-75 CNS", "value": 22, "unit": "µM"},
      {"measurement": "TGI", "setting": "SNB-75 CNS", "value": 50, "unit": "µM"},
      {"measurement": "GI50", "setting": "SR leukemia", "value": 6.93, "unit": "µM"},
      {"measurement": "TGI", "setting": "SR leukemia", "value": 19.4, "unit": "µM"},
      {"measurement": "GI50", "setting": "SW-620 colon", "value": 25.6, "unit": "µM"},
      {"measurement": "TGI", "setting": "SW-620 colon", "value": 68.8, "unit": "µM"},
      {"measurement": "GI50", "setting": "T-47D breast", "value": 16.9, "unit": "µM"},
      {"measurement": "TGI", "setting": "T-47D breast", "value": 31.1, "unit": "µM"},
      {"measurement": "GI50", "setting": "TK-10 renal", "value": 27.4, "unit": "µM"},
      {"measurement": "TGI", "setting": "TK-10 renal", "value": 80.5, "unit": "µM"},
      {"measurement": "GI50", "setting": "U251 glioblastoma", "value": 21, "unit": "µM"},
      {"measurement": "TGI", "setting": "U251 glioblastoma", "value": 45.1, "unit": "µM"},
      {"measurement": "GI50", "setting": "UACC-257 melanoma", "value": 24.5, "unit": "µM"},
      {"measurement": "TGI", "setting": "UACC-257 melanoma", "value": 48.6, "unit": "µM"},
      {"measurement": "GI50", "setting": "UACC-62 melanoma", "value": 17.7, "unit": "µM"},
      {"measurement": "TGI", "setting": "UACC-62 melanoma", "value": 31.9, "unit": "µM"},
      {"measurement": "GI50", "setting": "UO-31 renal", "value": 24.1, "unit": "µM"},
      {"measurement": "TGI", "setting": "UO-31 renal", "value": 56.9, "unit": "µM"}
    ]}
  ]
}
